Assay results taken from US9458153B2, “Dihydroquinolizinones for the treatment and prophylaxis of hepatitis B virus infection” (Hoffmann-La Roche Inc., priority 2014, dated 2016).
Structures can show the parent of a compound that is named as a salt.

Each compound was assayed on HBsAg (assay: HBsAg assay (chemiluminescence immunoassay of secreted HBsAg in HepG2.2.15 culture supernatant)). Settings: HBsAg secretion reduced by 50% vs no drug control; HepG2.2.15 cells; CLIA kit.
Assay type: cell-based, HBV
How it was run: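 HepG2.2.15 cells, which constitutively express HBV, were seeded in duplicate and treated with three-fold serial compound dilutions at 1% DMSO final. Secreted HBsAg in culture supernatant was measured semi-quantitatively by chemiluminescence immunoassay. IC50 was extrapolated from dose-response curves.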

Compound	IC50 [nM]
COc1cc2c(cc1OCCCCCCCCNC(=O)OC(C)(C)C)CC(C(C)(C)C)n1cc(C(=O)O)c(=O)cc1-2 (single isomer, unassigned; (-)) [Example 169, (−)-9-[8-(tert-butoxycarbonylamino)octoxy]-6-tert-butyl-10-methoxy-2-oxo-6,7-dihydrobenzo[a]quinolizine-3-carboxylic acid]	190
COc1cc2c(cc1OCCCSC)CC(C(C)(C)C)n1cc(C(=O)O)c(=O)cc1-2 (single isomer, unassigned; (-)) [Example 185, (−)-6-tert-butyl-10-methoxy-9-(3-methylsulfanylpropoxy)-2-oxo-6,7-dihydrobenzo[a]quinolizine-3-carboxylic acid]	55
COc1cc2c(cc1OCCCS(C)(=O)=O)CC(C(C)(C)C)n1cc(C(=O)O)c(=O)cc1-2 (single isomer, unassigned; (-)) [Example 188, (−)-6-tert-butyl-10-methoxy-9-(3-methylsulfonylpropoxy)-2-oxo-6,7-dihydrobenzo[a]quinolizine-3-carboxylic acid]	220
COc1cc2c(cc1OCCN1CCOCC1)CC(C(C)(C)C)n1cc(C(=O)O)c(=O)cc1-2 (single isomer, unassigned; (-)) [Example 191, (−)-6-tert-butyl-10-methoxy-9-(2-morpholinoethoxy)-2-oxo-6,7-dihydrobenzo[a]quinolizine-3-carboxylic acid]	190
COc1cc2c(cc1OCCCN1CCOCC1)CC(C(C)(C)C)n1cc(C(=O)O)c(=O)cc1-2 (single isomer, unassigned; (-)) [Example 194, (−)-6-tert-butyl-10-methoxy-9-(3-morpholinopropoxy)-2-oxo-6,7-dihydrobenzo[a]quinolizine-3-carboxylic acid]	270
COCCCOc1cc2c(cc1OC)-c1cc(=O)c(C(=O)O)cn1C(CC(F)(F)F)C2 (single isomer, unassigned; (-)) [Example 201, (−)-10-methoxy-9-(3-methoxypropoxy)-2-oxo-6-(2,2,2-trifluoroethyl)-6,7-dihydrobenzo[a]quinolizine-3-carboxylic acid]	14200
COCCCOc1cc2c(cc1Cl)-c1cc(=O)c(C(=O)O)cn1C(C(C)(C)C)C2 (single isomer, unassigned; (-)) [Example 204, (−)-6-tert-butyl-10-chloro-9-(3-methoxypropoxy)-2-oxo-6,7-dihydrobenzo[a]quinolizine-3-carboxylic acid]	140
COCCCOc1cc2c(cc1Cl)-c1cc(=O)c(C(=O)O)cn1C(C1(C)CC1)C2 (single isomer, unassigned; (-)) [Example 207, (−)-10-chloro-9-(3-methoxypropoxy)-6-(1-methylcyclopropyl)-2-oxo-6,7-dihydrobenzo[a]quinolizine-3-carboxylic acid]	40
COCCCOc1cc2c(cc1OC)-c1cc(=O)c(C(=O)O)cn1C(C1(C)CC1)C2 (single isomer, unassigned; (-)) [Example 210, (−)-10-methoxy-9-(3-methoxypropoxy)-6-(1-methylcyclopropyl)-2-oxo-6,7-dihydrobenzo[a]quinolizine-3-carboxylic acid]	92
COCCCOc1cc2c(c(F)c1F)-c1cc(=O)c(C(=O)O)cn1C(C(C)C)C2 (single isomer, unassigned; (-)) [Example 215, (−)-10,11-difluoro-6-isopropyl-9-(3-methoxypropoxy)-2-oxo-6,7-dihydrobenzo[a]quinolizine-3-carboxylic acid]	1140
CCC1Cc2cc(OCc3ccccc3)c(OC)cc2-c2cc(=O)c(C(=O)O)cn21 (stereo not drawn) [Example 8, 9-benzyloxy-6-ethyl-10-methoxy-2-oxo-6,7-dihydrobenzo[a]quinolizine-3-carboxylic acid]	150

Same assay, conditions: HBsAg secretion reduced by 50% vs no drug control; HepG2.2.15 cells; CLIA kit; hydrochloride

Compound	IC50 [nM]
COc1cc2c(cc1OCCCCCCN)CC(C(C)(C)C)n1cc(C(=O)O)c(=O)cc1-2 (single isomer, unassigned; (-)) [Example 165, (−)-9-(6-aminohexoxy)-6-tert-butyl-10-methoxy-2-oxo-6,7-dihydrobenzo[a]quinolizine-3-carboxylic acid hydrochloride]	1550
COc1cc2c(cc1OCCCCCCCCN)CC(C(C)(C)C)n1cc(C(=O)O)c(=O)cc1-2 (single isomer, unassigned; (-)) [Example 171, (−)-9-(8-aminooctoxy)-6-tert-butyl-10-methoxy-2-oxo-6,7-dihydrobenzo[a]quinolizine-3-carboxylic acid hydrochloride]	420
COc1cc2c(cc1OCCCCCN)CC(C(C)(C)C)n1cc(C(=O)O)c(=O)cc1-2 (single isomer, unassigned; (-)) [Example 174, (−)-9-(5-aminopentoxy)-6-tert-butyl-10-methoxy-2-oxo-6,7-dihydrobenzo[a]quinolizine-3-carboxylic acid hydrochloride]	2420

Same assay, conditions: Hepatitis B virus, HepG2.2.15, HBsAg secretion reduced by 50% vs no drug control; HepG2.2.15 cells; CLIA kit

Compound	IC50 [nM]
COc1cc2c(cc1OCc1ccccc1)CC(C)n1cc(C(=O)O)c(=O)cc1-2 (stereo not drawn) [Example 1, 9-benzyloxy-10-methoxy-6-methyl-2-oxo-6,7-dihydrobenzo[a]quinolizine-3-carboxylic acid]	13
CCOc1cc2c(cc1OC)-c1cc(=O)c(C(=O)O)cn1C(C)C2 (stereo not drawn) [Example 4, 9-ethoxy-10-methoxy-6-methyl-2-oxo-6,7-dihydrobenzo[a]quinolizine-3-carboxylic acid]	98
CCC1Cc2cc(OCCc3ccccc3)c(OC)cc2-c2cc(=O)c(C(=O)O)cn21 (stereo not drawn) [Example 14, 6-ethyl-10-methoxy-2-oxo-9-(2-phenylethoxy)-6,7-dihydrobenzo[a]quinolizine-3-carboxylic acid]	14
CCCCOc1cc2c(cc1OC)-c1cc(=O)c(C(=O)O)cn1C(CC)C2 (stereo not drawn) [Example 15, 9-butoxy-6-ethyl-10-methoxy-2-oxo-6,7-dihydrobenzo[a]quinolizine-3-carboxylic acid]	16
CCC1Cc2cc(OCCC3CCCCC3)c(OC)cc2-c2cc(=O)c(C(=O)O)cn21 (stereo not drawn) [Example 16, 9-(2-cyclohexylethoxy)-6-ethyl-10-methoxy-2-oxo-6,7-dihydrobenzo[a]quinolizine-3-carboxylic acid]	15
C#CCOc1cc2c(cc1OC)-c1cc(=O)c(C(=O)O)cn1C(CC)C2 (stereo not drawn) [Example 17, 6-ethyl-10-methoxy-2-oxo-9-prop-2-ynoxy-6,7-dihydrobenzo[a]quinolizine-3-carboxylic acid]	190
CCC1Cc2cc(OCC(=O)N3CCCC3)c(OC)cc2-c2cc(=O)c(C(=O)O)cn21 (stereo not drawn) [Example 18, 6-ethyl-10-methoxy-2-oxo-9-(2-oxo-2-pyrrolidin-1-yl-ethoxy)-6,7-dihydrobenzo[a]quinolizine-3-carboxylic acid]	9470
CCC1Cc2cc(OCCOCCOC)c(OC)cc2-c2cc(=O)c(C(=O)O)cn21 (stereo not drawn) [Example 19, 6-ethyl-10-methoxy-9-[2-(2-methoxyethoxyl)ethoxy]-2-oxo-6,7-dihydrobenzo[a]quinolizine-3-carboxylic acid]	250
CCC1Cc2cc(OCCN3CCOCC3)c(OC)cc2-c2cc(=O)c(C(=O)O)cn21 (stereo not drawn) [Example 20, 6-ethyl-10-methoxy-9-(2-morpholinoethoxy)-2-oxo-6,7-dihydrobenzo[a]quinolizine-3-carboxylic acid]	220
CCC1Cc2cc(OCCO)c(OC)cc2-c2cc(=O)c(C(=O)O)cn21 (stereo not drawn) [Example 21, 6-ethyl-9-(2-hydroxyethoxy)-10-methoxy-2-oxo-6,7-dihydrobenzo[a]quinolizine-3-carboxylic acid]	450
